Measurements taken from ChEMBL document CHEMBL1201862, “PubChem BioAssay data set” (2004).
Activity calls are given as the source filed them.

Tests used:
[1] = biological target: T1, Replicative DNA helicase DnaB (Mycobacterium tuberculosis, UniProt P9WMR3); assay: DnaB intein splicing inhibitors, dose response, biochemical, cell-free fluorescence (AID 449749); assay type: functional
T1 sequence (P9WMR3 whole entry): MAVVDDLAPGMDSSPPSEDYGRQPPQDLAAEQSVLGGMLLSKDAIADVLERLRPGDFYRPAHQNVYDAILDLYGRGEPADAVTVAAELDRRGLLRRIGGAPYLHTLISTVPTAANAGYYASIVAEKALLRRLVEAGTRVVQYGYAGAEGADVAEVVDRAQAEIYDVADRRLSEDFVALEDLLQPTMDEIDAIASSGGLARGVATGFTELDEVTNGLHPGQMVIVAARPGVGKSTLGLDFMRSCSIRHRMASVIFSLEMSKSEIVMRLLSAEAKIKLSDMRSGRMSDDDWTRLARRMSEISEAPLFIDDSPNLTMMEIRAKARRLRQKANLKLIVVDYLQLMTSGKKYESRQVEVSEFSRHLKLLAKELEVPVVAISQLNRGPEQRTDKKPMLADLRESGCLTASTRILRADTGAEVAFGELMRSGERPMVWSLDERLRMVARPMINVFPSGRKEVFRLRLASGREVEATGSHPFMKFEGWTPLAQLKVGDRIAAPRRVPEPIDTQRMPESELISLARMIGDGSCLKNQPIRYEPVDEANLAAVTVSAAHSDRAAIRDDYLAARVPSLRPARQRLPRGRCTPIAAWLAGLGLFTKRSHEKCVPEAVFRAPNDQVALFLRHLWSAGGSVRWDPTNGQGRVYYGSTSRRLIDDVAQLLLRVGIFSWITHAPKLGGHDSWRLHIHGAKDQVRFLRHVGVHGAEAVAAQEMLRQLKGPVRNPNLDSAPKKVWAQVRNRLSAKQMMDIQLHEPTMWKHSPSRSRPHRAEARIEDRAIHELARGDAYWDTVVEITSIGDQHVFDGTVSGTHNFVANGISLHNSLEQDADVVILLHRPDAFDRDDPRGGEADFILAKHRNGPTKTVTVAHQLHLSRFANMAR

[2] = CCR5-tropic HIV-1 fusion blockers – cell-based, CCR5-tropic Env, dose response (AID 2279); assay type: functional
Protein RecA = biological target: T2, Protein RecA (Mycobacterium tuberculosis, UniProt P9WHJ3); assay: Fluorescence Cell-Free Homogeneous Dose Retest to Identify Inhibitors of RecA-Intein Splicing Activity. [Related pubchem assays (depositor defined):AID2097, AID2223, AID489010, AID492950]; assay type: functional
T2 sequence (P9WHJ3 whole entry): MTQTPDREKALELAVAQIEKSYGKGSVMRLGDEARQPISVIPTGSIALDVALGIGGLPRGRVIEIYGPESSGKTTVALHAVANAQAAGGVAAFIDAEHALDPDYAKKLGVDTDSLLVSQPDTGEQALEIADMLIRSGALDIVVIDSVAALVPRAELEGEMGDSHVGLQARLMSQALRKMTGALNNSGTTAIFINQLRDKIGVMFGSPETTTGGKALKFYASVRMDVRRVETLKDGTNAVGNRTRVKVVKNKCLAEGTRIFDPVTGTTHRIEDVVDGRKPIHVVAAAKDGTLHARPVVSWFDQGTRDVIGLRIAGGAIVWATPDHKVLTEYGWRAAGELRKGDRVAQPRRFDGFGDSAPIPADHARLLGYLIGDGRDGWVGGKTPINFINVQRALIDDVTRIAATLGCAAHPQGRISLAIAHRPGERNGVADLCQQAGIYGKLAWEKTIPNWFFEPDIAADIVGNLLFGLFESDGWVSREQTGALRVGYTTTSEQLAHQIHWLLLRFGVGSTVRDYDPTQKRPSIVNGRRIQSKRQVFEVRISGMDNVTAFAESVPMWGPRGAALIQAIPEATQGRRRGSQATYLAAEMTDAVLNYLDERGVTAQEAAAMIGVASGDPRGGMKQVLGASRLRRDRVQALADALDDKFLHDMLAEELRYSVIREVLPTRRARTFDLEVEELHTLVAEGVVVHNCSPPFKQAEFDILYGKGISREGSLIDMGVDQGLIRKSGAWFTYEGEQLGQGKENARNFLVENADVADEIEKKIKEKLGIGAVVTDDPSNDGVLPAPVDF

[3] = biological target: Bifunctional protein GlmU (Mycobacterium tuberculosis, UniProt P9WMN3); assay: Inhibitors of Mycobacterial Glucosamine-1-phosphate acetyl transferase (GlmU). Secondary screen.; design: species or system Mycobacterium tuberculosis H37Rv
Aminopeptidase N = biological target: T3, Aminopeptidase N (Plasmodium falciparum FcB1/Columbia, UniProt O96935); assay: malaria alanyl aminopeptidase activity blockers – biochemical, fluorogenic H-Leu-NHMec substrate, 1536-well (AID 1445); design: species or system Plasmodium falciparum 3D7, 3D7
T3 sequence (O96935 whole entry): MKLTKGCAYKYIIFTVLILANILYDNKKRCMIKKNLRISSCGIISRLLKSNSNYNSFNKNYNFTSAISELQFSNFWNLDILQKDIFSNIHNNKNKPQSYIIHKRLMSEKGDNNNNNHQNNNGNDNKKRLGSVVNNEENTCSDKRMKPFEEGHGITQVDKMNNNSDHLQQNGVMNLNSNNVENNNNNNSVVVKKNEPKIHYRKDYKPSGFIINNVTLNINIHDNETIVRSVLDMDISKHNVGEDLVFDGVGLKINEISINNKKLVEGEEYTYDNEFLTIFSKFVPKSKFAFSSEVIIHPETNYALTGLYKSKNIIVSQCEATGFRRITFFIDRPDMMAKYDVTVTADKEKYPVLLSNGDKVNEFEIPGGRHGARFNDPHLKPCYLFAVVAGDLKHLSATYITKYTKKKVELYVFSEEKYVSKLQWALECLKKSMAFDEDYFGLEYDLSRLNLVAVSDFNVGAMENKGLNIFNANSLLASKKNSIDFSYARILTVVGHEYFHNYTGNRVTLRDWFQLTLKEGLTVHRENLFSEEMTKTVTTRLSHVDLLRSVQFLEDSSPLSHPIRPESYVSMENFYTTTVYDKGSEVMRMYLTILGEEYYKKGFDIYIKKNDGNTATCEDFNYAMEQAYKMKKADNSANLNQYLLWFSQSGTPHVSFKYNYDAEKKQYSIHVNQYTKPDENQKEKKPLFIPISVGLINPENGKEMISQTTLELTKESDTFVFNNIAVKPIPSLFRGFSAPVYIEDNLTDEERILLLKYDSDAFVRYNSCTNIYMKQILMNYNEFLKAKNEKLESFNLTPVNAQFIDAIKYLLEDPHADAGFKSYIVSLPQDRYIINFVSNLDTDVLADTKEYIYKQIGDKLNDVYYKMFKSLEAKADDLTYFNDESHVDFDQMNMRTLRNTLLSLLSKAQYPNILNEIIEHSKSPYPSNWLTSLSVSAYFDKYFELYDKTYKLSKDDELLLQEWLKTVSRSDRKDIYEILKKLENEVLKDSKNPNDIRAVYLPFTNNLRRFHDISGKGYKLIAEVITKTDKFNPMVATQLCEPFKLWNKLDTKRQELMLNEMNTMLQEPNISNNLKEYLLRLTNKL

[4] = antiviral protection against BTV-induced cell death – arbovirus, BSR cells, confirmation (AID 1250); assay type: functional;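 further: protection from viral cytopathic effect measured as cell viability by ATP luminescence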
Estrogen receptor = biological target: T4, Estrogen receptor (Homo sapiens, UniProt P03372); assay: blockers of SRC-3 recruitment to ERα – biochemical, ELISA, streptavidin-HRP readout, orthogonal assay, confirmation (AID 1079)
T4 sequence (P03372 whole entry): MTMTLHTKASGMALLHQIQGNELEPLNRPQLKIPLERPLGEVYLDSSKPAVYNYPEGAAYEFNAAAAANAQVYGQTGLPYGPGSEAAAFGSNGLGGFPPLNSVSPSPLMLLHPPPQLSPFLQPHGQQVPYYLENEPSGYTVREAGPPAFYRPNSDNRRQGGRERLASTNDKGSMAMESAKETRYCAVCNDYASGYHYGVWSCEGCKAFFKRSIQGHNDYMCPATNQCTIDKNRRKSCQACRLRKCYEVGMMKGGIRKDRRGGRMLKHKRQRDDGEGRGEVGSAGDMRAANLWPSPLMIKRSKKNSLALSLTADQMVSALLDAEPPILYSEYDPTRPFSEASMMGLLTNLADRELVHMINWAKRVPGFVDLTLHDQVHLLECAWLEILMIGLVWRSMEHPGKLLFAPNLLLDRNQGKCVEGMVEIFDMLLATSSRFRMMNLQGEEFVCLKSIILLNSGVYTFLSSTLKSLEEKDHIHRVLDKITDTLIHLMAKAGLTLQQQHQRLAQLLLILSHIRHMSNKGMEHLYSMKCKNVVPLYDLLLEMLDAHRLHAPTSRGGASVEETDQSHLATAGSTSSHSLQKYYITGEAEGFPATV

Insulin-degrading enzyme = biological target: T5, Insulin-degrading enzyme (Homo sapiens, UniProt P14735); assay: Dose Response: Fluorescence polarization-based cell-based high throughput dose response assay for inhibitors of insulin-degrading enzyme (IDE). [Related pubchem assays: 434962 (Primary screen (IDE inhibitors in singlicate)), 449730 (Counterscreen (Cytotoxicity in triplicate)), 435028 (Confirmation (IDE inhibitors in triplicate)), 434984 (Summary …; assay type: functional
T5 sequence (P14735 whole entry): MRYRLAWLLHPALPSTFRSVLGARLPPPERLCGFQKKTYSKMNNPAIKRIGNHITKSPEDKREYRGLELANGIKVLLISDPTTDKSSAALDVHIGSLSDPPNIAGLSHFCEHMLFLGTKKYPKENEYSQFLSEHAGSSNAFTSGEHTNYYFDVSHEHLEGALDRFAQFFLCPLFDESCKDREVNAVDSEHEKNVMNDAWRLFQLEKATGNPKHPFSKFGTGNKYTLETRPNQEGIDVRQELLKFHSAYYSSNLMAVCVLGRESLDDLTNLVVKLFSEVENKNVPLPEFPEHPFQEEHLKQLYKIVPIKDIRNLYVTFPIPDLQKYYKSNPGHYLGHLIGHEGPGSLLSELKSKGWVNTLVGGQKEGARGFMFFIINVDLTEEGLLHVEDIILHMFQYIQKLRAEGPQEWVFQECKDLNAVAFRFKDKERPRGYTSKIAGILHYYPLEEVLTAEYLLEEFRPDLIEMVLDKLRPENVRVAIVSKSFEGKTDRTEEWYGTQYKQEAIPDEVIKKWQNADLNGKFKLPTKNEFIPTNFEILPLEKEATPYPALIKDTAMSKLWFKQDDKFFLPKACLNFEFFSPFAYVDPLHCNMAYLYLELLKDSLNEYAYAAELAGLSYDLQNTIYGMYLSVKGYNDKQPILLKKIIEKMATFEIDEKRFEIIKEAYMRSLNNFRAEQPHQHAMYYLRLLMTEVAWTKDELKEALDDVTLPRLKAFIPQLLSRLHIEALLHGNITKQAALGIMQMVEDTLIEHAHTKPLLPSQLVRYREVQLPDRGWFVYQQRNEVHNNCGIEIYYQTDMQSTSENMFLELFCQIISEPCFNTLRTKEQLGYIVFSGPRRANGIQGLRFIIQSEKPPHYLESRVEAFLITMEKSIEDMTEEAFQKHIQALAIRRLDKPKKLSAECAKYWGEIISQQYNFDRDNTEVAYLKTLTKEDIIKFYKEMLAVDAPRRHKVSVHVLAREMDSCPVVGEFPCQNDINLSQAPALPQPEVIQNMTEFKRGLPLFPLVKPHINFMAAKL

[5] = Counterscreen for IDE inhibitors: Luminescence-based cell-based high throughput dose response assay to identify compounds that are cytotoxic to HEK cells. [Related pubchem assays: 434962 (Primary screen (IDE inhibitors in singlicate)), 449730 (Counterscreen (Cytotoxicity in triplicate)), 435028 (Confirmation (IDE inhibitors in triplicate)) …; assay type: functional; conditions: HEK293
[6] = biological target: T6, Corticotropin-releasing factor receptor 2/Corticotropin-releasing factor-binding protein (Homo sapiens, UniProt P24387+Q13324); assay: activators of CRF receptor 2 with binding protein – uHTS hits, confirmation (AID 602473); assay type: functional; conditions: read-out: EC50_Mean
T6 sequence (Q13324 whole entry): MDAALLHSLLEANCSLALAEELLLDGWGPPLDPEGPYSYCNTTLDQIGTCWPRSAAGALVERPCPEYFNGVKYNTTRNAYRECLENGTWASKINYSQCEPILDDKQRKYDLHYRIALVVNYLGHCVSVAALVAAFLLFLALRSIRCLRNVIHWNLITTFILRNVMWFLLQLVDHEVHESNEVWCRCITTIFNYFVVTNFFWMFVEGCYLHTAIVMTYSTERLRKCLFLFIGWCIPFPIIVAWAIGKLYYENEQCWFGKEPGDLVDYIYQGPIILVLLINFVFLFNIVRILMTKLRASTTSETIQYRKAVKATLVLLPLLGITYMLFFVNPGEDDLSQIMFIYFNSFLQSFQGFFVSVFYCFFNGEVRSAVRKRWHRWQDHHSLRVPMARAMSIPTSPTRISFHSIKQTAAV
T6 sequence (P24387 whole entry): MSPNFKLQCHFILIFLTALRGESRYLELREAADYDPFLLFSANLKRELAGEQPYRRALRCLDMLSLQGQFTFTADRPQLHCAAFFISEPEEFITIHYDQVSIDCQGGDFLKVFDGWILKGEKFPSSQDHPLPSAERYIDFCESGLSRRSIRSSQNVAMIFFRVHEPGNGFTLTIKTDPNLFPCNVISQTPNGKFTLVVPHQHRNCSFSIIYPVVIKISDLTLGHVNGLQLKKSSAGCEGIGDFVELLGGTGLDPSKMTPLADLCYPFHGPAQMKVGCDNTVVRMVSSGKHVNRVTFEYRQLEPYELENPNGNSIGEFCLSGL

Bifunctional protein GlmU, sequence (P9WMN3 whole entry): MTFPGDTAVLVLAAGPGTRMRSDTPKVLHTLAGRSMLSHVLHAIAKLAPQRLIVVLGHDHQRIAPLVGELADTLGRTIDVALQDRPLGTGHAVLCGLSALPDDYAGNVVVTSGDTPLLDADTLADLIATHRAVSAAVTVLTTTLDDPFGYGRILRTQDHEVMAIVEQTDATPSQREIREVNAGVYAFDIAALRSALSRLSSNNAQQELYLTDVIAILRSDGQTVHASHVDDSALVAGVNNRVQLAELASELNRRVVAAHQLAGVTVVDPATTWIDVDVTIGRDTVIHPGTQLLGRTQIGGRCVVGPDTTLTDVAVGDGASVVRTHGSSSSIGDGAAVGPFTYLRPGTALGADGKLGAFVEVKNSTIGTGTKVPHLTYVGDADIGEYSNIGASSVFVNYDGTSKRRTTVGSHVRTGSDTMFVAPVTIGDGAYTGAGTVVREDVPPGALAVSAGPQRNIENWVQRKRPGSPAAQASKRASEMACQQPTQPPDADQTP

In the case of N#C/C(=C\c1ccc(O)c([N+](=O)[O-])c1)c1nc2ccccc2s1, the AC50 [1] was 7.01 µM (active), the IC50 [2] was 3.41 µM (active) and the EC50 (Protein RecA) was 4.58 µM (active). The IC50 [3] was 71.8 µM (active), the IC50 (Aminopeptidase N) was 33.9 µM (active) and the IC50 [4] was > 100 µM (active).
In the case of N#Cc1cccc(N2CCN(C(=O)CCCCCn3c(=S)[nH]c4ccccc4c3=O)CC2)c1, the IC50 (Estrogen receptor) was 0.09 µM (not active).
In the case of CCN(CC)c1ccc(/C=C2\CCC(/C=N/NC(=O)c3ccc(=O)n(C)c3)=C2N2CCOCC2)cc1, the IC50 (Insulin-degrading enzyme) was 12.5 µM (not active), the IC50 [5] was 16.6 µM (not active) and the EC50 [6] was 5.19 µM (active).
